Source: ChEMBL document CHEMBL3243958, “Bufotenine esters” (J Med Chem, 1979)

Columns and labels:
[1] = target: Serotonin 1 (5-HT1) receptor (Rattus norvegicus, UniProt P28564+P30940+P19327+P28565); assay: Antagonist activity at 5-HT1 receptor in Sprague-Dawley rat assessed as inhibition of 5-HT-induced stomach fundus contraction
[2] = Chloroform to aqueous buffer partition coefficient, log P of the compound at pH 7.4 by shake flask method; format: physicochemical
[3] = Chemical stability of the compound assessed as ester hydrolysis in Tyrode's solution at 37 degC for 10 to 15 mins; format: physicochemical; settings: read-out: Drug metabolism
[4] = Stability in Sprague-Dawley rat stomach fundus strip assessed as hydrolysis; format: ADME, tissue-based; settings: read-out: Drug metabolism

Q: Which results are given for `CN(C)CCc1c[nH]c2ccc(O)cc12` [BUFOTENINE]?
A: pA2 [1]: 7.41; logP [2]: 0.06

Q: What does the source list for `CCCC(=O)Oc1ccc2[nH]cc(CCN(C)C)c2c1.O=C(O)C(=O)O`?
A: degraded [3]: 5%; pA2 [1]: 7.32; metabolised [4]: 15%

Q: For `CCC(=O)Oc1ccc2[nH]cc(CCN(C)C)c2c1.O=C(O)C(=O)O`, which degraded [3] is on record?
A: 5%

Q: And the metabolised [4]?
A: 15%

Q: What about the logP [2] of the same compound?
A: 5.6

Q: What does the source list for `CC(C)C(=O)Oc1ccc2[nH]cc(CCN(C)C)c2c1`?
A: degraded [3]: 1%; metabolised [4]: 15%

Q: For `CC(=O)Oc1ccc2[nH]cc(CCN(C)C)c2c1.O=C(O)C(=O)O`, which degraded [3] is on record?
A: 5%

Q: And the pA2 [1]?
A: 7.71

Q: And the metabolised [4]?
A: < 5%

Q: And the logP [2]?
A: 2.31

Q: With `COc1ccc2[nH]cc(CCN(C)C)c2c1` [MEBUFOTENIN] as the compound, how does the logP [2] read?
A: 3.3

Q: With `CN(C)CCc1c[nH]c2ccc(OC(=O)C(C)(C)C)cc12` as the compound, how does the degraded [3] read?
A: 1%

Q: And the metabolised [4]?
A: 15%

Q: With `CN(C)CCc1c[nH]c2ccccc12` as the compound, how does the pA2 [1] read?
A: 6

Q: And the logP [2]?
A: 2.61
